Laboratory results taken from patent US20150087673A1, “METHODS FOR USING AND BIOMARKERS FOR AMPK-ACTIVATING COMPOUNDS” (RIGEL PHARMACEUTICALS, INC., priority 2013, published 2015).

Key:
[1] = system: glucose uptake; assay: Glucose uptake in vitro; assay type: cell-based
[2] = system: gluconeogenesis; assay: Gluconeogenesis in vitro; assay type: cell-based
[3] = system: db/db mice; assay: [U-13C]-palmitate tracer analysis (13CO2/12CO2 enrichment) in db/db mice; assay type: in vivo, mouse
Source text: The elevated levels of BHBA detected by the global metabolite profiling are an indirect indicator of an increase in lipid oxidation. […] Appearance of ^13CO2 occurs via β-oxidation of the labeled palmitate to release ^13C-acetyl CoA, which must pass through one round of the TCA cycle before the labeled carbon can be given off as ^13CO2. An increased β-oxidation rate will result in a corresponding increase in ^13CO2 enrichment. In agreement with the elevation in relative BHBA levels detected in liver, adipose, and skeletal muscle tissues, an increase in ^13CO2 enrichment is observed for compound 309 treatment across all three tissues at both 60 and 120 minutes after palmitate administration. Ratios of ^13CO2 to ^12CO2 were higher for all treatment groups, including the vehicle, at 120 minutes compared to 60 minutes after palmitate feeding (FIG. 2). This time-dependent elevation was due to the slow absorption kinetics of the orally administered tracer suspension.
Male db/db mice (8 weeks) were orally gavaged once daily with vehicle, 5 mg/kg compound 309, or 10 mg/kg compound 309. Thirty minutes after dosing at day 8, 0.5 mg/kg of the metabolic tracer was administered, either via intraperitoneal injection for [U-^13C]-glucose or oral gavage for [U-^13C]-palmitate, followed by collection of liver, muscle, adipose tissue, and plasma at the timepoints indicated in the figure legends. Frozen samples were sent to SiDMAP, LLC (Los Angeles, Calif.) for isotope tracer analysis [Boros L G, Huang D, Heaney A P (2012) Fructose Drives Glucose via Direct Oxidation and Promotes Palmitate/Oleate Co-Release from Hepg2 Cells: Relevance with the Randle Cycle. […]
The elevated levels of BHBA detected by the global metabolite profiling are an indirect indicator that compound 309 treatment increases lipid oxidation. […] In agreement with the elevation in relative BHBA levels detected in liver, adipose, and skeletal muscle tissues, an increase in ^13CO2 enrichment is observed for compound 309 treatment across all three tissues at both 60 and 120 minutes after palmitate administration. […]

[4] = system: AMPK; assay: AMPK activation in liver and muscle lysates after a single oral administration; assay type: in vivo, mouse; details: normal C57BL/6J mice, single oral administration of 10 mg/kg
[5] = Compound plasma levels after oral dosing; assay type: in vivo, mouse
Protocol: Metabolite profiling of tissues from db/db mice orally dosed with either vehicle or 10 mg/kg compound 309 was used to characterize in detail the effects of the present AMPK activators on nutrient pathways in a commonly used mouse model of type 2 diabetes. […] Since AMPK activation results in both acute and chronic changes to metabolic pathways, samples from non-fasted mice treated for three days with compound 309 were analyzed. Samples were collected thirty minutes after compound dosing when compound 309 plasma levels as well as tissue AMPK activation were maximal.

[6] = system: db/db mice; assay: [U-13C]-D-glucose tracer analysis in db/db mice; assay type: in vivo, mouse
Protocol: Male db/db mice (8 weeks) were orally gavaged once daily with vehicle, 5 mg/kg compound 309, or 10 mg/kg compound 309. Thirty minutes after dosing at day 8, 0.5 mg/kg of the metabolic tracer was administered, either via intraperitoneal injection for [U-^13C]-glucose or oral gavage for [U-^13C]-palmitate, followed by collection of liver, muscle, adipose tissue, and plasma at the timepoints indicated in the figure legends. Frozen samples were sent to SiDMAP, LLC (Los Angeles, Calif.) for isotope tracer analysis [Boros L G, Huang D, Heaney A P (2012) Fructose Drives Glucose via Direct Oxidation and Promotes Palmitate/Oleate Co-Release from Hepg2 Cells: Relevance with the Randle Cycle. Metabolomics 2: 107-115; Huang J, Simcox J, Mitchell T C, Jones D, Cox J, et al. (2013) Iron regulates glucose homeostasis in liver and muscle via AMP-activated protein kinase in mice. FASEB J.]. [U-^13C]-D-glucose and [U-^13C]-palmitate were from Sigma-Aldrich. Sample preparation, analysis, and informatics were performed on blinded samples. Statistical analyses were performed using the 2-tailed Student t test.
A more sensitive [U-^13C]-D-glucose tracer analysis was carried out as follows: Non-fasted db/db mice treated with vehicle or compound 309 for one week were given an intraperitoneal injection of an [U-^13C]-D-glucose tracer (0.5 mg/kg) followed by measurements of tracer carbon incorporation into various metabolites after glucose injection.

time after compound dosing when plasma levels were maximal [5]: thirty
SMILES: COc1ccc(C(=O)C2CCN(C(=O)c3ccc(C(=O)NC4CCN(Cc5ccc(C#N)cc5)CC4)cn3)CC2)cc1 [Compound 309, N-(1-(4-cyanobenzyl)piperidin-4-yl)-6-(4-(4-methoxybenzoyl)piperidine-1-carbonyl)nicotinamide]
glucose uptake [1]: robust enhancement
gluconeogenesis [2]: reduction
13CO2 enrichment after [U-13C]-palmitate ([3]; liver, adipose and skeletal muscle, 60 and 120 minutes after palmitate administration, treated one week): increase
fatty acid oxidation ([3]; liver, skeletal muscle and adipose tissue, chronic treatment of db/db mice): directly upregulated
dose-dependence of 13CO2 enrichment after [U-13C]-palmitate ([3]; skeletal muscle, 5 and 10 mg/kg): no dose-dependence
AMPK activation in liver and muscle lysates [4]: robust AMPK activation
skeletal muscle palmitate and myristate levels ([6]; after saponification of muscle acylglycerols and acylcarnitines): significant decreases
13CO2 release (glucose oxidation via the TCA cycle) ([6]; all three tissues): increased
13CO2 enrichment after [U-13C]-D-glucose ([6]; liver and adipose tissues, 60 and 90 minutes post-tracer): clear dose-dependent increase
13C-labeled fraction of palmitate ([6]; plasma or liver, data not shown): no increase
dose-dependence of complete glucose tracer oxidation ([6]; skeletal muscle): no dose-dependence
13C-labeled fatty acids in palmitate and myristate pools ([6]; skeletal muscle, 60 and 90 minutes): significantly enriched
13CO2 enrichment after [U-13C]-D-glucose vs vehicle ([6]; skeletal muscle, 60 minutes): no differences
level of 13C-labeled myristate compared to vehicle ([6]; skeletal muscle, 90 minute timepoint): two-fold higher
tracer oxidation (13CO2 enrichment) after [U-13C]-D-glucose ([6]; skeletal muscle, 90 minutes): clearly sustained
